Experimental data: PubChem BioAssay (NCI)
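96-well plates; 48 h exposure; 5 concentrations. Endpoints by linear interpolation between flanking doses. Not reached: highest tested concentration assigned. Abbreviation: GI50, concentration required for 50% inhibition of growth. TGI is the concentration that stops growth completely.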

What was measured:
Assay in all cases: growth of human tumour cells (NCI), 48 h
[1] = tested on: TK-10 renal
[2] = tested on: RXF 393 renal
[3] = tested on: SF-539 CNS
[4] = tested on: SNB-19 CNS
[5] = tested on: BT-549 breast
[6] = tested on: HL-60(TB) leukemia
[7] = tested on: IGROV1 ovarian
[8] = tested on: HS 578T breast
[9] = tested on: SN12C renal
[10] = tested on: OVCAR-5 ovarian
[11] = tested on: A549 NSCLC
[12] = tested on: HCT-15 colon
[13] = tested on: NCI-H226 lung
[14] = tested on: UO-31 renal
[15] = tested on: SK-MEL-2 melanoma
[16] = tested on: DU-145 prostate
[17] = tested on: HOP-92 NSCLC
[18] = tested on: CAKI-1 renal
[19] = tested on: SK-MEL-28 melanoma
[20] = tested on: SF-295 CNS
[21] = tested on: RPMI-8226 leukemia
[22] = tested on: 786-0 renal
[23] = tested on: MDA-MB-231 breast
[24] = tested on: HCT-116 colon
[25] = tested on: MOLT-4 leukemia
[26] = tested on: K-562 leukemia
[27] = tested on: LOX IMVI melanoma
[28] = tested on: SK-OV-3 ovarian
[29] = tested on: MALME-3M melanoma
[30] = tested on: NCI-H23 lung
[31] = tested on: SR leukemia
[32] = tested on: HCC-2998 colon
[33] = tested on: PC-3 prostate
[34] = tested on: NCI/ADR-RES ovarian
[35] = tested on: ACHN renal
[36] = tested on: M14 melanoma
[37] = tested on: SF-268 CNS
[38] = tested on: COLO 205 colon
[39] = tested on: NCI-H460 lung
[40] = tested on: UACC-62 melanoma
[41] = tested on: NCI-H522 lung
[42] = tested on: OVCAR-3 ovarian
[43] = tested on: SW-620 colon
[44] = tested on: SNB-75 CNS
[45] = tested on: A498 renal
[46] = tested on: MDA-MB-435
[47] = tested on: UACC-257 melanoma
[48] = tested on: HOP-62 NSCLC
[49] = tested on: SK-MEL-5 melanoma
[50] = tested on: HT29 colon
[51] = tested on: CCRF-CEM leukemia
[52] = tested on: U251 CNS
[53] = tested on: OVCAR-4 ovarian
[54] = tested on: MCF7 breast
[55] = tested on: OVCAR-8 ovarian
[56] = tested on: EKVX NSCLC

Question: With CC/C=C\C[C@H]1C/C=C2/C(=O)C=C[C@H]2C/C=C\CCCC(=O)O1 as the molecule, how does the GI50 [1] read?
Answer: The GI50 was 2.54 µM.

Question: What about the TGI [1] of the same molecule?
Answer: The TGI was 8.01 µM.

Question: And the GI50 [2]?
Answer: The GI50 was 1.91 µM.

Question: And the TGI [2]?
Answer: The TGI was 8.01 µM.

Question: And the GI50 [3]?
Answer: Its GI50 is 2.07 µM.

Question: And the TGI [3]?
Answer: The TGI was 8.16 µM.

Question: And the GI50 [4]?
Answer: Its GI50 is 5.17 µM.

Question: And the TGI [4]?
Answer: The TGI was 11.2 µM.

Question: And the GI50 [5]?
Answer: Its GI50 is 2.52 µM.

Question: And the TGI [5]?
Answer: Its TGI is 9.29 µM.

Question: And the GI50 [6]?
Answer: The GI50 was 1.74 µM.

Question: And the TGI [6]?
Answer: The TGI was 12 µM.

Question: And the GI50 [7]?
Answer: The GI50 was 2.66 µM.

Question: What about the TGI [7] of the same molecule?
Answer: Its TGI is 8.99 µM.

Question: What about the GI50 [8] of the same molecule?
Answer: The GI50 was 10.3 µM.

Question: What about the TGI [8] of the same molecule?
Answer: Its TGI is > 50 µM.

Question: What about the GI50 [9] of the same molecule?
Answer: Its GI50 is 2.62 µM.

Question: What about the TGI [9] of the same molecule?
Answer: Its TGI is > 50 µM.

Question: What about the GI50 [10] of the same molecule?
Answer: Its GI50 is 3.99 µM.

Question: What about the TGI [10] of the same molecule?
Answer: Its TGI is 16.8 µM.

Question: And the GI50 [11]?
Answer: The GI50 was 2.66 µM.

Question: What about the TGI [11] of the same molecule?
Answer: The TGI was 10.3 µM.

Question: What about the GI50 [12] of the same molecule?
Answer: Its GI50 is 1.5 µM.

Question: And the TGI [12]?
Answer: Its TGI is 7.04 µM.

Question: And the GI50 [13]?
Answer: Its GI50 is 3.4 µM.

Question: What about the TGI [13] of the same molecule?
Answer: The TGI was 10.8 µM.

Question: And the GI50 [14]?
Answer: The GI50 was 4.87 µM.

Question: And the TGI [14]?
Answer: The TGI was 11.2 µM.

Question: What about the GI50 [15] of the same molecule?
Answer: The GI50 was 3.77 µM.

Question: And the TGI [15]?
Answer: Its TGI is 12.6 µM.

Question: And the GI50 [16]?
Answer: Its GI50 is 1.9 µM.

Question: What about the TGI [16] of the same molecule?
Answer: The TGI was 7.39 µM.

Question: What about the GI50 [17] of the same molecule?
Answer: The GI50 was 2.53 µM.

Question: What about the TGI [17] of the same molecule?
Answer: The TGI was 10.1 µM.

Question: What about the GI50 [18] of the same molecule?
Answer: The GI50 was 2.29 µM.

Question: What about the TGI [18] of the same molecule?
Answer: The TGI was 8.23 µM.

Question: What about the GI50 [19] of the same molecule?
Answer: Its GI50 is 3.1 µM.

Question: And the TGI [19]?
Answer: The TGI was 11.4 µM.

Question: And the GI50 [20]?
Answer: The GI50 was 2.62 µM.

Question: And the TGI [20]?
Answer: Its TGI is 9.33 µM.

Question: And the GI50 [21]?
Answer: The GI50 was 1.59 µM.

Question: And the TGI [21]?
Answer: The TGI was 4.82 µM.

Question: And the GI50 [22]?
Answer: Its GI50 is 3.24 µM.

Question: And the TGI [22]?
Answer: The TGI was 10.2 µM.

Question: And the GI50 [23]?
Answer: Its GI50 is 3.23 µM.

Question: And the TGI [23]?
Answer: Its TGI is 14.8 µM.

Question: What about the GI50 [24] of the same molecule?
Answer: Its GI50 is 1 µM.

Question: And the TGI [24]?
Answer: Its TGI is 2.55 µM.

Question: And the GI50 [25]?
Answer: The GI50 was 1.84 µM.

Question: And the TGI [25]?
Answer: The TGI was 25.1 µM.

Question: What about the GI50 [26] of the same molecule?
Answer: Its GI50 is 1.89 µM.

Question: And the TGI [26]?
Answer: The TGI was > 50 µM.

Question: What about the GI50 [27] of the same molecule?
Answer: Its GI50 is 1.68 µM.

Question: And the TGI [27]?
Answer: Its TGI is 6.7 µM.

Question: What about the GI50 [28] of the same molecule?
Answer: The GI50 was 5.67 µM.

Question: And the TGI [28]?
Answer: Its TGI is 13.1 µM.

Question: And the GI50 [29]?
Answer: The GI50 was 7.81 µM.

Question: What about the TGI [29] of the same molecule?
Answer: Its TGI is 17.4 µM.

Question: And the GI50 [30]?
Answer: Its GI50 is 2.15 µM.

Question: And the TGI [30]?
Answer: Its TGI is 9.92 µM.

Question: What about the GI50 [31] of the same molecule?
Answer: The GI50 was 1.34 µM.

Question: And the TGI [31]?
Answer: The TGI was 21.8 µM.

Question: What about the GI50 [32] of the same molecule?
Answer: The GI50 was 2.37 µM.

Question: What about the TGI [32] of the same molecule?
Answer: The TGI was 8.43 µM.

Question: What about the GI50 [33] of the same molecule?
Answer: The GI50 was 3.13 µM.

Question: What about the TGI [33] of the same molecule?
Answer: The TGI was 12.1 µM.

Question: What about the GI50 [34] of the same molecule?
Answer: The GI50 was 1.47 µM.

Question: What about the TGI [34] of the same molecule?
Answer: Its TGI is > 50 µM.

Question: What about the GI50 [35] of the same molecule?
Answer: The GI50 was 1.39 µM.

Question: And the TGI [35]?
Answer: Its TGI is 3.97 µM.

Question: What about the GI50 [36] of the same molecule?
Answer: Its GI50 is 1.69 µM.

Question: What about the TGI [36] of the same molecule?
Answer: Its TGI is 8.34 µM.

Question: What about the GI50 [37] of the same molecule?
Answer: Its GI50 is 3.77 µM.

Question: And the TGI [37]?
Answer: Its TGI is 17.8 µM.

Question: What about the GI50 [38] of the same molecule?
Answer: Its GI50 is 1.87 µM.

Question: And the TGI [38]?
Answer: Its TGI is 6.7 µM.

Question: And the GI50 [39]?
Answer: The GI50 was 2.92 µM.

Question: And the TGI [39]?
Answer: The TGI was 14.5 µM.

Question: What about the GI50 [40] of the same molecule?
Answer: The GI50 was 1.78 µM.

Question: What about the TGI [40] of the same molecule?
Answer: The TGI was 7.94 µM.

Question: What about the GI50 [41] of the same molecule?
Answer: Its GI50 is 1.98 µM.

Question: And the TGI [41]?
Answer: Its TGI is 7.21 µM.

Question: What about the GI50 [42] of the same molecule?
Answer: Its GI50 is 1.65 µM.

Question: And the TGI [42]?
Answer: Its TGI is 5.94 µM.

Question: And the GI50 [43]?
Answer: The GI50 was 2.58 µM.

Question: What about the TGI [43] of the same molecule?
Answer: The TGI was 10.4 µM.

Question: And the GI50 [44]?
Answer: The GI50 was 1.56 µM.

Question: And the TGI [44]?
Answer: The TGI was 8.74 µM.

Question: And the GI50 [45]?
Answer: The GI50 was 7.21 µM.

Question: What about the TGI [45] of the same molecule?
Answer: The TGI was 14.4 µM.

Question: What about the GI50 [46] of the same molecule?
Answer: Its GI50 is 1.66 µM.

Question: And the TGI [46]?
Answer: The TGI was 6.04 µM.

Question: What about the GI50 [47] of the same molecule?
Answer: Its GI50 is 5.04 µM.

Question: And the TGI [47]?
Answer: Its TGI is 12 µM.

Question: What about the GI50 [48] of the same molecule?
Answer: Its GI50 is 2.09 µM.

Question: What about the TGI [48] of the same molecule?
Answer: Its TGI is 7.72 µM.

Question: And the GI50 [49]?
Answer: Its GI50 is 1.74 µM.

Question: And the TGI [49]?
Answer: The TGI was 7.27 µM.

Question: And the GI50 [50]?
Answer: Its GI50 is 1.85 µM.

Question: And the TGI [50]?
Answer: The TGI was 6.15 µM.

Question: And the GI50 [51]?
Answer: The GI50 was 1.67 µM.

Question: And the TGI [51]?
Answer: Its TGI is 15.3 µM.

Question: And the GI50 [52]?
Answer: Its GI50 is 1.95 µM.

Question: And the TGI [52]?
Answer: The TGI was 7.09 µM.

Question: What about the GI50 [53] of the same molecule?
Answer: The GI50 was 2.81 µM.

Question: And the TGI [53]?
Answer: Its TGI is 9.73 µM.

Question: And the GI50 [54]?
Answer: The GI50 was 2.21 µM.

Question: And the TGI [54]?
Answer: Its TGI is 12.4 µM.

Question: And the GI50 [55]?
Answer: The GI50 was 2 µM.

Question: What about the TGI [55] of the same molecule?
Answer: Its TGI is 11.7 µM.

Question: And the GI50 [56]?
Answer: Its GI50 is 4.89 µM.

Question: And the TGI [56]?
Answer: The TGI was 15.7 µM.
